From US20230330089A1, “COVID PREVENTION AND TREATMENT USING AN INTEGRIN INHIBITOR” (priority 2022, published 2023)

How the values were obtained:
ACE2 = conditions: cited from earlier work
SARS-CoV-2 pseudovirus = conditions: cited from earlier work
[1] = test system: VsVg positive control lentivirus; assay type: cell-based; conditions: HSAE cells pre-treated with 20 nM to 1 μM for 2 hours; 24 hour infection
[2] = Phase I, solid tumors; cited from earlier work
TGF-β signaling = conditions: breast cancer cells; cited from earlier work

Row | SMILES | cellular expression of ACE2 (ACE2) | pseudovirus infection of multiple human cell types (SARS-CoV-2 pseudovirus) | effect on VsVg positive control infection [1] | toxicity profile in patients [2] | effect on TGF-β signaling (TGF-β signaling)
1 | CNS(=O)(=O)Nc1nccc(Cc2c(C)c3ccc(Oc4ncccn4)cc3oc2=O)c1F [VS-6766] | reduce cellular expression of ACE2 | inhibit pseudovirus infection | – | – | –
2 | COc1ccc(S(=O)(=O)N[C@@H](CNc2nc(C)nc(N3CCC(c4ccc5c(n4)NCCC5)CC3)c2C)C(=O)O)cc1 [GLPG-0187] | – | – | no effect of the inhibitor was observed | favorable toxicity profile | decreased TGF-β signaling
